Assay results: patent publication US12509460B2 (Skyhawk Therapeutics, Inc., priority 2019, dated 2025)
Where two headings read alike, the source gives them in different places.

Columns and labels:
[1] = test system: mHTT protein in GM04724 (CAG 70/20) Huntington's disease patient lymphoblast cells; assay: mHTT protein assay, 2B7-MW1 assay via Mesoscale Discovery (MSD); type: cell-based, human
Outline: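 Signal from the 2B7-MW1 antibody pair on MSD, rising with polyQ length and smaller HTT fragments, measured mHTT after 48 h compound exposure (0.6 nM–10 μM) in GM04724 cells. A parallel replicate plate gave CellTiter Glo viability.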

[2] = test system: SMN protein in spinal muscular atrophy (SMA) patient fibroblasts (GM03813, Coriell); assay: SMN protein assay, Mesoscale Discovery (MSD); type: cell-based, human; conditions: for EC50: read-out: SMN2 protein EC50
Outline: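 Absolute SMN levels were quantified by MSD against an SMN protein standard curve (1 μg/ml to 19.5 pg/ml) run on each plate. Samples were lysates of GM03813 patient fibroblasts (7000 cells/well) treated 48 hours with compound doses from 2.5 μM down to 0.6 nM.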

[3] = test system: MDR1-MDCK cell monolayers; conditions: dog, MDCK-MDR1, 120 min, 5 μM, pH 7.4
MDR1 (P-gp) = assay: in vitro; conditions: dog, MDCK-MDR1, pH 7.4
MDR1 = assay: in vitro; conditions: dog, MDCK-MDR1, pH 7.4
[4] = GM04724 Huntington's disease patient lymphoblasts
[5] = SMA patient fibroblasts GM03813, 48 hours, MSD
[6] = GM04724 (CAG 70/20) Huntington's disease patient lymphoblasts
[7] = SMA patient fibroblasts (GM03813), 48 hours

Row | Compound | mHTT protein EC50 [1, 4] | SMN2 protein EC50 [2, 5] | MDCK-MDR1: % Recov A-B [3] [%] | MDCK-MDR1: % Recov B-A [3] [%] | Papp A→B at 120 min, 5 μM (MDR1 (P-gp)) [×10⁻⁶ cm/s] | Papp B→A at 120 min, 5 μM (MDR1 (P-gp)) [×10⁻⁶ cm/s] | efflux ratio at 120 min, 5 μM (MDR1) | EC50 [2, 5] [nM] | mHTT protein EC50 [1, 6] | EC50 [2, 7] [nM] | SMN2 protein EC50 [2, 7] | EC50 [1, 4] [nM]
1 | CN(c1ccc(-c2cc3cc[nH]c(=O)c3s2)nn1)[C@H]1C[C@@H]2CC[C@@H](N2)[C@H]1F (single isomer, unassigned) [Compound 66B] | E (501 ≤ E ≤ 10.000) | E (501 ≤ E ≤ 10.000) | 98 | 98 | 0.07 | 4.64 | 68 |  |  |  |  | 
2 | CN(c1ccc(-c2cn3c(=O)ccnc3cc2O)nn1)[C@@H]1C[C@H]2CC[C@@H]([C@@H]1F)N2C (single isomer, unassigned) [Compound 95A] | E (501 ≤ E ≤ 10.000) | E (501 ≤ E ≤ 10.000) | 85 | 115 | 0.15 | 8.79 | 59 |  |  |  |  | 
3 | CN(c1ccc(-c2ccc(Oc3cnn(C)c3)cc2O)nn1)[C@H]1C[C@@H]2CC[C@@H](N2)[C@H]1F (single isomer, unassigned) [Compound 91B] | E (501 ≤ E ≤ 10.000) | E (501 ≤ E ≤ 10.000) | 106 | 102 | 3.94 | 73.3 | 19 |  |  |  |  | 
4 | CN(c1ccc(-c2cc3occc(=O)c3cc2O)nn1)[C@@H]1C[C@H]2CC[C@@H]([C@@H]1F)N2C (single isomer, unassigned) [Compound 94A] | E (501 ≤ E ≤ 10.000) |  | 68 | 71 | 4.99 | 33.9 | 7 | 101 to 500 |  |  |  | 
5 | CN(c1ccc(-c2cc3cccnc3cc2O)nn1)[C@H]1C[C@@H]2CC(F)(F)[C@H](C1)N2 [Compound 45B, 6-(6-(((1R,3S,5S)-6,6-difluoro-8-azabicyclo[3.2.1]octan-3-yl)(methyl)amino)pyridazin-3-yl)quinolin-7-ol] | E (501 ≤ E ≤ 10.000) | E (501 ≤ E ≤ 10.000) | 95 | 111 | 10.2 | 45.3 | 4 |  |  |  |  | 
6 | CN(c1ccc(-c2cc(C#N)c(F)cc2O)nn1)[C@@H]1C[C@H]2CC[C@H](N2)[C@@H]1F [Compound 72A, 2-fluoro-5-(6-(((1S,2S,3R,5R)-2-fluoro-8-azabicyclo[3.2.1]octan-3-yl)(methyl)amino)pyridazin-3-yl)-4-hydroxybenzonitrile] | E (501 ≤ E ≤ 10.000) | E (501 ≤ E ≤ 10.000) | 88 | 77 | 11.6 | 39.9 | 3 |  |  |  |  | 
7 | CN(c1ccc(-c2cc3c(=O)n(C)cnc3cc2O)nn1)[C@@H]1C[C@H]2CC[C@@H]([C@@H]1F)N2C [Compound 102A, 6-(6-(((1S,2S,3R,5R)-2-fluoro-8-methyl-8-azabicyclo[3.2.1]octan-3-yl)(methyl)amino)pyridazin-3-yl)-7-hydroxy-3-methylquinazolin-4(3H)-one] |  |  | 88 | 92 | 1.43 | 58.1 | 41 |  | E (501 ≤ E ≤ 10.000) | 101 to 500 |  | 
8 | CN1[C@@H]2CC[C@H]1[C@H](F)[C@H](N(c1ccc(-c3cc4ncn(CC(F)(F)F)c(=O)c4cc3O)nn1)C1CC1)C2 (single isomer, unassigned) [Compound 111A] |  |  | 90 | 83 | 0.89 | 44.3 | 45 |  | E (501 ≤ E ≤ 10.000) |  | E (501 ≤ E ≤ 10.000) | 
9 | CNC(=O)c1cc(O)c(-c2ccc(N(C)[C@H]3C[C@@H]4CC[C@H]([C@H]3F)N4C)nn2)cc1F (single isomer, unassigned) [Compound 96B] | E (501 ≤ E ≤ 10.000) | E (501 ≤ E ≤ 10.000) | 92 | 98 | 2.72 | 55.2 | 20 |  |  |  |  | 
10 | CNC(=O)c1ccc(-c2ccc(N(C)[C@@H]3C[C@H]4CC[C@H](N4)[C@@H]3F)nn2)c(O)c1 (single isomer, unassigned) [Compound 77A] | E (501 ≤ E ≤ 10.000) |  | 104 | 110 | 0.29 | 36.3 | 124 | 101 to 500 |  |  |  | 
11 | CN(c1ccc(-c2cc3cnccc3cc2O)nn1)[C@@H]1C[C@H]2CC[C@@H]([C@@H]1F)N2C [Compound 93A, 7-(6-(((1S,2S,3R,5R)-2-fluoro-8-methyl-8-azabicyclo[3.2.1]octan-3-yl)(methyl)amino)pyridazin-3-yl)isoquinolin-6-ol] | E (501 ≤ E ≤ 10.000) |  | 50 | 70 | 5.27 | 17.9 | 3 | 101 to 500 |  |  |  | 
12 | CN(c1ccc(-c2cn3c(=O)ccnc3cc2O)nn1)[C@@H]1C[C@H]2CC[C@H](N2)[C@@H]1F (single isomer, unassigned) [Compound 82A] | E (501 ≤ E ≤ 10.000) |  | 104 | 121 | 0.08 | 3.33 | 40 | 101 to 500 |  |  |  | 
13 | CN(c1ccc(-c2ccc(Oc3nccn3C)cc2O)nn1)[C@@H]1C[C@H]2CC[C@H](N2)[C@@H]1F (single isomer, unassigned) [Compound 123A] |  |  | 97 | 102 | 0.76 | 59.7 | 79 |  | E (501 ≤ E ≤ 10.000) |  | E (501 ≤ E ≤ 10.000) | 
14 | CN(c1ccc(-c2cc3occc(=O)c3cc2O)nn1)[C@H]1C[C@@H]2CC[C@H]([C@H]1F)N2C (single isomer, unassigned) [Compound 94B] | E (501 ≤ E ≤ 10.000) |  | 73 | 83 | 4.47 | 41.2 | 9 | 101 to 500 |  |  |  | 
15 | CN(C)C(=O)c1cc2cc(O)c(-c3ccc(N(C)[C@H]4C[C@@H]5CC[C@H]([C@H]4F)N5C)nn3)cc2o1 (single isomer, unassigned) [Compound 106B] |  |  | 92 | 99 | 1.61 | 55.7 | 35 |  | E (501 ≤ E ≤ 10.000) | 101 to 500 |  | 
16 | CN(C)C(=O)c1cc2cc(O)c(-c3ccc(N(C)[C@@H]4C[C@H]5CC[C@@H]([C@@H]4F)N5C)nn3)cc2o1 (single isomer, unassigned) [Compound 106A] |  |  | 95 | 92 | 1.87 | 63.1 | 34 |  | E (501 ≤ E ≤ 10.000) |  | E (501 ≤ E ≤ 10.000) | 
17 | CCc1cn(-c2ccc(-c3ccc(N(C)[C@H]4C[C@@H]5CC(F)(F)[C@H](C4)N5)nn3)c(O)c2)nn1 (single isomer, unassigned) [Compound 64B] |  | E (501 ≤ E ≤ 10.000) | 69 | 83 | 5.61 | 58.6 | 10 |  |  |  |  | 101 to 500
18 | O=c1c2cc(O)c(-c3ccc(N(C4CC4)[C@H]4C[C@@H]5CC[C@@H](N5)[C@H]4F)nn3)cc2ncn1CC(F)(F)F (single isomer, unassigned) [Compound 60B] |  |  | 88 | 92 | 0.68 | 53 | 77 | 101 to 500 |  |  |  | 101 to 500
19 | O=c1c2cc(O)c(-c3ccc(N(C4CC4)[C@@H]4C[C@H]5CC[C@H](N5)[C@@H]4F)nn3)cc2ncn1CC(F)(F)F (single isomer, unassigned) [Compound 60A] | E (501 ≤ E ≤ 10.000) | E (501 ≤ E ≤ 10.000) | 94 | 100 | 0.44 | 65.9 | 151 |  |  |  |  | 
20 | CC(=O)Nc1ccc(-c2ccc(N(C)[C@@H]3C[C@H]4CC[C@H](N4)[C@@H]3F)nn2)c(O)c1 (single isomer, unassigned) [Compound 32A] | E (501 ≤ E ≤ 10.000) | E (501 ≤ E ≤ 10.000) | 90 | 98 | 0.34 | 20.2 | 59 |  |  |  |  | 
